In assay [1] the test system is B-divergens. Description: Activity against B-divergens in vitro in bovine red cells. The class given is cell-based. To be noted: Bos taurus, read-out: IC50 Bovine. The method, then: (§1) Activity against Babesiosis in vitro
(§2) The activity of the test compound against B-divergens in vitro, both in bovine and human red cells was measured and compared with the activities of standard anti-babesials.

The test system of assay [2] is B-divergens. Description: Activity against B-divergens in vitro in human red cells. The assay is classed as cell-based. To be noted: for IC50: read-out: IC50 Human. The method, then:
as §1, §2

Assay [3] has as its system B-divergens. As to conditions: two patients; cited from earlier work.
The next assay deals with Leishmania donovani. Description: Activity against Leishmania donovani in vitro in mouse peritoneal macrophages. The assay is classed as cell-based, Leishmania donovani (in macrophages of CDl mice). The method, then:
Leishmania donovani was routinely maintained in male golden hamsters (Wright'strain). Amastigotes were isolated from the spleen of infected hamsters 6-8 weeks after infection for use in experimental studies.
The procedure of Neal and Croft (Journal of Antimicrobial Chemotherapy 14, 463-475 (1984) was followed. Mouse peritoneal macrophages were isolated from the peritoneal cavity of outbred CDl mice. Macrophages were cultured in Labtek eight-well tissue chamber slides in RPMI 1640 medium plus 10% heat-inactivated foetal calf serum at 37° in a 5% CO2 -air mixture. Cultures were infected with freshly isolated amastigotes 24 hours before the start of drug treatment. Finally, infected macrophages where incubated in the presence of medium containing the test compound for 7 days, medium being replaced on days 1, 3 and 5 after infection.
The compound was tested in a five-fold dilution series from 50 μM with four replicates at each dilution. Fine suspensions of the compound for testing were prepared by dilution with medium of solutions initially prepared in echanol.
The proportion of infected macrophages in Giemsa stained preparations was determined after 7 days exposure to the test compound. The ED50 value was calculated by a sigmoidal analysis.

The test system of the next assay is L. donovani. As to the kind of experiment: Activity against L. donovani in vivo in Balb/c mice. The arrangement: species or system L. donovani (in male Balb/c mice). To be noted: for % Suppression of Liver Amastigotes: 0.25% cellacol. The method, then:
Male Balb/c mice were infected intravenously with 5×10^6 L. donovani amastigotes obtained as in Example 5. One week after infection mice were randomly divided into groups of 5 and treatment with test compound commenced, using cellacol as the vehicle for the test compound. Four days after the completion of treatment all mice were sacrificed. Their livers were removed, weighted and impression smears were fixed with methanol and […] stained. The activity of the compound was determined from the number of amastigotes/500 liver cells in treated and untreated groups.

The test system of a further assay is B. divergens. Description: Activity against B. divergens infection in gerbils, single oral dose at the time of infection. The class given is in vivo. To be noted: for % Activity / Days to 0.1% Parasitaemia / Days to Redwater / Maximum % Parasitaemia / % Control % Parasitaemia (day 3): single dose. The method, then: Gerbils, in groups of 5, were injected intraperitoneally with gerbil erythrocytes infected with 10^7 B divergens. At the time of infection, the gerbils were given, per os by stomach tube, a single dose of test compound, diluted in methyl cellulose. The gerbils were assessed for the time to reach 0.1% parasitaemia and the time to reach haemoglobinurea (redwater). The maximum parasitaemia reached and suppression of parasitaemia relative to controls were assessed and the activity of the test compound calculated.

As for `N=C(N)c1cccc(NC(=O)Nc2cccc(C(=N)N)c2)c1` [Amicarbalide isethionate], the IC50 in the assay on B-divergens [1] (in vitro, bovine red cells) was determined as 460 nM; in the assay with B-divergens [2] (in vitro, human red cells), 517 nM.

As to `O=C(Nc1cccc(C2=NCCN2)c1)Nc1cccc(C2=NCCN2)c1` [Imizol], the IC50 was 100 nM with B-divergens [1] (in vitro, bovine red cells) and 310 nM in the assay on B-divergens [2] (in vitro, human red cells). In addition, in the assay with B-divergens [3], the “use in patients to cure B-divergens” value is “used successfully in two patients to cure B-divergens”.

On to `O=C1C(O)=C([C@H]2CC[C@H](c3ccc(Cl)cc3)CC2)C(=O)c2ccccc21` [Test compound, 2-[trans-4-(4-chlorophenyl)cyclohexyl]-3-hydroxy-1,4-naphthoquinone], for which the IC50 worked out at 17.9 nM in the assay on B-divergens [1] (in vitro, bovine red cells) and 36.3 nM with B-divergens [2] (in vitro, human red cells). Also, the “effectiveness in vitro compared with Imizol” value in the assay with B-divergens [2] (in vitro, Table 1 covers bovine and human red cells) is reported as “more effective than Imizol in vitro”.

Regarding `O=C1C(O)=C(C2CCC(c3ccc(Cl)cc3)CC2)C(=O)c2ccccc21` (mixture of isomers) [2-[4-(4-chlorophenyl)cyclohexyl]-3-hydroxy-1,4-naphthoquinone], the “activity against L. donovani in vitro” value in the assay with Leishmania donovani (50 μM) is “active at 50 μM concentration against L. donovani”. Moreover, in the assay with Leishmania donovani (Leishmania donovani, Peritoneal macrophage, 168 h, 0.4 μM, 7 days), the inhibition at 0.4 µM came to 6%. The same compound registered an inhibition at 2 µM in the assay on Leishmania donovani (Leishmania donovani, Peritoneal macrophage, 168 h, 2 μM, 7 days) of 0%. In the assay with Leishmania donovani (Leishmania donovani, Peritoneal macrophage, 168 h, 10 μM, 7 days), this compound showed an inhibition at 10 µM of 14.7%. This compound also registered an inhibition at 50 µM in the assay with Leishmania donovani (Leishmania donovani, Peritoneal macrophage, 168 h, 50 μM, 7 days) of 64.8%. Further, the EC50 with Leishmania donovani (Leishmania donovani, Peritoneal macrophage, 168 h, 7 days exposure, sigmoidal analysis, P95% limits in brackets, read-out: ED50 [P95% limits]) came to 29500 nM. The “% Suppression of Liver Amastigotes” value in the assay with L. donovani (100 mg/kg/day × 5, Oral) amounted to 0%; with L. donovani (100 mg/kg/day × 5, Subcutaneous), 30.5%. Further, the “activity against L. donovani in vivo” value in the assay with L. donovani (subcutaneous) was “active when administered subcutaneously”.

Take `O=C1C(O)=C(C2CCC(c3ccc(Cl)cc3)CC2)C(=O)c2ccccc21` (centres unmarked) [2-[4-(4-chlorophenyl)cyclohexyl]-3-hydroxy-1,4-napthoquinone]: in the assay on B. divergens (0.1 mg/kg per os), the “% Activity” value amounted to 0.0%, the “Days to 0.1% Parasitaemia” value worked out at 1.0 ± 0.0 days, the “Days to Redwater” value is 3.0 ± 0.0 days and the “Maximum % Parasitaemia” value was greater than 40%. For the same compound, the “% Control % Parasitaemia (day 3)” value with B. divergens (0.1 mg/kg per os) is 138.7 ± 18.6%. Further, in the assay on B. divergens (1.0 mg/kg per os), the “% Activity” value is on record as 86.1%, the “Days to 0.1% Parasitaemia” value was 2.5 ± 0.57 days, the “Days to Redwater” value came out at 4.0 ± 0.82 days and the “Maximum % Parasitaemia” value is greater than 40%. Moreover, the “% Control % Parasitaemia (day 3)” value with B. divergens (1.0 mg/kg per os) was determined as 13.9 ± 4.3%. Further, in the assay with B. divergens (10.0 mg/kg per os), the “% Activity” value is listed as 100%, the “Days to 0.1% Parasitaemia” value was determined as 5.6 ± 2.5 days, the “Days to Redwater” value stood at 9.2 ± 1.8 days and the “Maximum % Parasitaemia” value worked out at 4.02%. Also, in the assay with B. divergens (10.0 mg/kg per os), the “% Control % Parasitaemia (day 3)” value worked out at 0.0%. Also, in the assay on B. divergens (50.0 mg/kg per os), the “% Activity” value came out at 100%, the “Days to 0.1% Parasitaemia” value is greater than 10.0 days, the “Days to Redwater” value was greater than 10.0 days and the “Maximum % Parasitaemia” value was determined as 0.0%. For the same compound, the “% Control % Parasitaemia (day 3)” value with B. divergens (50.0 mg/kg per os) is on record as 0.0%. For the same compound, the “activity in vivo against B. divergens in gerbils” value in the assay with B. divergens (per os) is listed as “active in vivo against B. divergens in gerbils”.

Take `C[n+]1cccc2cc(NC(=O)Nc3ccc4c(ccc[n+]4C)c3)ccc21` [Quinuronium sulphate]: the IC50 with B-divergens [1] (in vitro, bovine red cells) worked out at 34 nM; in the assay with B-divergens [2] (in vitro, human red cells), 96 nM.

Regarding `CC[n+]1c(-c2ccccc2)c2cc(N)ccc2c2ccc(N)cc21` [Ethidium bromide], the results for the IC50 with B-divergens [1] and with B-divergens [2] (Homo sapiens) were 47 nM and 69 nM, respectively.

On to `N=C(N)c1ccc(OCCCCCOc2ccc(C(=N)N)cc2)cc1` [Pentamidine isethionate], for which the IC50 with B-divergens [1] (in vitro, bovine red cells) turned out to be 360 nM; in the assay with B-divergens [2] (in vitro, human red cells), 456 nM.

A word on the IC50: it is the concentration needed to halve the response being measured. By inhibition is commonly meant the percentage by which the read-out fell short of the control.

These data come from patent publication US5559156A, “Method for treating animals infected with Babesia spp” (Glaxo Wellcome, Inc., priority 1994, dated 1996).
